# Target: T1, PI3K gamma (Homo sapiens, UniProt P48736)
# T1 construct: His tag (C); made in house; host or cells: baculovirus (pVL1393); Tn5 or TiniPro insect cells; construct from Roger Williams lab, MRC LMB
# Assay: PI3K gamma kinase assay (Kinase-Glo luminescence)
# Assay type: biochemical
# Settings: not given
# Summary of the method: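 PI3Kγ (150 nM) reaction run 120 min at room temperature with phosphatidylinositol substrate (10 μg/mL) and ATP (1 μM) in Tris pH 7.5 buffer containing MgCl2, NaCl, CHAPS and DTT. Remaining ATP detected by Kinase-Glo luminescence; 8 concentrations per compound, IC50 from 4-parameter curve fitting.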
# T1 sequence (P48736 144-1102 limits assumed): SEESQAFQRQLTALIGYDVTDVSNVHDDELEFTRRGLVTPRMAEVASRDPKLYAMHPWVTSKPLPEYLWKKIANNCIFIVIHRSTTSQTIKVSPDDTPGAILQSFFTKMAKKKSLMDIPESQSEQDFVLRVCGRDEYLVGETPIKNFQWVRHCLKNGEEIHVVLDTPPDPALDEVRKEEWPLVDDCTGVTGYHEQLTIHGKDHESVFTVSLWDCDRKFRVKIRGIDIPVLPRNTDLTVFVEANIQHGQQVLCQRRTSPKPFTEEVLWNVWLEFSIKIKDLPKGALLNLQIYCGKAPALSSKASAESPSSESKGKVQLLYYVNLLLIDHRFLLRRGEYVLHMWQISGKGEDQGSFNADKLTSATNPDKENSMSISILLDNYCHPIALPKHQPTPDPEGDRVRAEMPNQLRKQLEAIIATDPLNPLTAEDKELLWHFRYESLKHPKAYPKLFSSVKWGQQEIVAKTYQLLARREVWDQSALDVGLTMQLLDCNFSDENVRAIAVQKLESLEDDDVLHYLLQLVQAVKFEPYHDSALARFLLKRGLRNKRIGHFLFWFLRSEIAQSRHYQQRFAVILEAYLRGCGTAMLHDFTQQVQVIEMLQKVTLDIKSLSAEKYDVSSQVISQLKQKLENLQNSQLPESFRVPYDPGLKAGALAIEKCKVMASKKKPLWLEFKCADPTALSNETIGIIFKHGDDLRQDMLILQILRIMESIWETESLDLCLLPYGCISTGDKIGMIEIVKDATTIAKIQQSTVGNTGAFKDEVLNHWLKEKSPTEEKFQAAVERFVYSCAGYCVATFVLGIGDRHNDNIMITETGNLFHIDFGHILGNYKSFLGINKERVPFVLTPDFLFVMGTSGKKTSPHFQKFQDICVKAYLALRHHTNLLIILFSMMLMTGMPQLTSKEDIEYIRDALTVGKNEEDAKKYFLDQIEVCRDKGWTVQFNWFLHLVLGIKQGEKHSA
row,IC50,Structure (SMILES)
1,213 nM,"Cc1nn(C)cc1-n1c(=O)n(C)c2cnc3ccc(-c4ccc(-n5cccn5)cc4)cc3c21 [Example 51.1, 1-(1,3-Dimethyl-1H-pyrazol-4-yl)-3-methyl-8-(4-pyrazol-1-yl-phenyl)-1,3-dihydro-imidazo[4,5-c]quinolin-2-one]"
2,309 nM,"Cc1nn(C)cc1-n1c(=O)n(C)c2cnc3ccc(-c4ccc(N5CCC5)nc4)cc3c21 [Example 5.1, 8-(6-Azetidin-1-yl-pyridin-3-yl)-1-(1,3-dimethyl-1H-pyrazol-4-yl)-3-methyl-1,3-dihydro-imidazo[4,5-c]quinolin-2-one]"
3,363 nM,"CNC(=O)c1cc(-c2ccc3ncc4c(c3c2)n(-c2cn(C)nc2C)c(=O)n4C)cnc1OC [Example 125.1, 5-[1-(1,3-Dimethyl-1H-pyrazol-4-yl)-3-methyl-2-oxo-2,3-dihydro-1H-imidazo[4,5-c]quinolin-8-yl]-2-methoxy-N-methyl-nicotinamide]"
4,137 nM,"CCOc1ccc(-c2ccc3ncc4c(c3c2)n(-c2c(C)nn(C)c2C)c(=O)n4C)cc1OCC [Example 27.2, 8-(3,4-Diethoxy-phenyl)-3-methyl-1-(1,3,5-trimethyl-1H-pyrazol-4-yl)-1,3-dihydro-imidazo[4,5-c]quinolin-2-one]"
5,69 nM,"CCOc1ccc(-c2ccc3ncc4c(c3c2)n(-c2cn(CC)nc2C)c(=O)n4C)cc1OC [Example 29.1, 8-(4-Ethoxy-3-methoxy-phenyl)-1-(1-ethyl-3-methyl-1H-pyrazol-4-yl)-3-methyl-1,3-dihydro-imidazo[4,5-c]quinolin-2-one]"
6,199 nM,"CCOc1cncc(-c2ccc3ncc4c(c3c2)n(-c2cn(CC(=O)N(C)C)nc2C)c(=O)n4C)c1 [Example 56.2, 2-{4-[8-(5-Ethoxy-pyridin-3-yl)-3-methyl-2-oxo-2,3-dihydro-imidazo[4,5-c]quinolin-1-yl]-3-methyl-pyrazol-1-yl}-N,N-dimethyl-acetamide]"
7,548 nM,"CNC(=O)c1ccc(-c2ccc3ncc4c(c3c2)n(-c2c(C)nn(C)c2C)c(=O)n4C)cn1 [Example 15.2, 5-[3-Methyl-2-oxo-1-(1,3,5-trimethyl-1H-pyrazo1-4-yl)-2,3-dihydro-1H-imidazo[4,5-c]quinolin-8-yl]-pyridine-2-carboxylic acid methylamide]"

# Continued, compound first:
row,Structure (SMILES),IC50
1,"COC(=O)c1ccc(-c2ccc3ncc4c(c3c2)n(-c2cn(C)nc2C)c(=O)n4C)cn1 [Example 100, 5-[1-(1,3-Dimethyl-1H-pyrazol-4-yl)-3-methyl-2-oxo-2,3-dihydro-1H-imidazo[4,5-c]quinolin-8-yl]-pyridine-2-carboxylic acid methyl ester]",287 nM
2,"COc1ccc(-c2ccc3ncc4c(c3c2)n(-c2cn(C(C)C)nc2C)c(=O)n4C)cc1OC [Example 1.5, 8-(3,4-Dimethoxy-phenyl)-1-(1-isopropyl-3-methyl-1H-pyrazol-4-yl)-3-methyl-1,3-dihydro-imidazo[4,5-c]quinolin-2-one]",132 nM
3,"CCn1cc(-n2c(=O)n(C)c3cnc4ccc(-c5ccc(OC)c(OC)c5)cc4c32)c(C)n1 [Example 1.6, 8-(3,4-Dimethoxy-phenyl)-1-(1-ethyl-3-methyl-1H-pyrazol-4-yl)-3-methyl-1,3-dihydro-imidazo[4,5-c]quinolin-2-one]",157 nM
4,"CCn1cc(-n2c(=O)n(C)c3cnc4ccc(-c5ccc(OC)nc5)cc4c32)c(C)n1 [Example 2.7, 1-(1-Ethyl-3-methyl-1H-pyrazol-4-yl)-8-(6-methoxy-pyridin-3-yl)-3-methyl-1,3-dihydro-imidazo[4,5-c]quinolin-2-one]",217 nM
5,"Cc1nn(C)cc1-n1c(=O)n(C)c2cnc3ccc(-c4cccc(S(=O)(=O)N5CCCC5)c4)cc3c21 [Example 44, 1-(1,3-Dimethyl-1H-pyrazol-4-yl)-3-methyl-8-[3-(pyrrolidine-1-sulfonyl)-phenyl]-1,3-dihydro-imidazo[4,5-c]quinolin-2-one]",237 nM
6,"Cc1nn(C)cc1-n1c(=O)n(C)c2cnc3ccc(-c4ccc(C(N)=O)nc4)cc3c21 [Example 14, 5-[1-(1,3-Dimethyl-1H-pyrazol-4-yl)-3-methyl-2-oxo-2,3-dihydro-1H-imidazo[4,5-c]quinolin-8-yl]-pyridine-2-carboxylic acid amide]",212 nM
7,"COc1ccc(-c2ccc3ncc4[nH]c(=O)n(-c5cn(C)nc5C)c4c3c2)cn1 [Example 109, 1-(1,3-Dimethyl-1H-pyrazol-4-yl)-8-(6-methoxy-pyridin-3-yl)-1,3-dihydro-imidazo[4,5-c]quinolin-2-one]",286 nM
8,"CCOc1ccc(-c2ccc3ncc4c(c3c2)n(-c2cn(C(C)C)nc2C)c(=O)n4C)cn1 [Example 3.7, 8-(6-Ethoxy-pyridin-3-yl)-1-(1-isopropyl-3-methyl-1H-pyrazol-4-yl)-3-methyl-1,3-dihydro-imidazo[4,5-c]quinolin-2-one]",303 nM
9,"COc1ccc(-c2ccc3ncc4c(c3c2)n(-c2cn(C)nc2C)c(=O)n4C)cn1 [Example 2.5, 1-(1,3-Dimethyl-1H-pyrazol-4-yl)-8-(6-methoxy-pyridin-3-yl)-3-methyl-1,3-dihydro-imidazo[4,5-c]quinolin-2-one]",390 nM
10,"CCOc1ncc(-c2ccc3ncc4c(c3c2)n(-c2cn(C)nc2C)c(=O)n4C)cc1N(C)C(C)=O [Example 63, N-{5-[1-(1,3-Dimethyl-1H-pyrazol-4-yl)-3-methyl-2-oxo-2,3-dihydro-1H-imidazo[4,5-c]quinolin-8-yl]-2-ethoxy-pyridin-3-yl}-N-methyl-acetamide]",816 nM
11,"COc1ncc(-c2ccc3ncc4c(c3c2)n(-c2cn(C)nc2C)c(=O)n4C)cc1N [Example 127, 8-(5-Amino-6-methoxy-pyridin-3-yl)-1-(1,3-dimethyl-1H-pyrazol-4-yl)-3-methyl-1,3-dihydro-imidazo[4,5-c]quinolin-2-one]",121 nM
12,"Cc1ncc(-c2ccc3ncc4c(c3c2)n(-c2cn(C)nc2C)c(=O)n4C)cc1NS(C)(=O)=O [Example 76, N-{5-[1-(1,3-Dimethyl-1H-pyrazol-4-yl)-3-methyl-2-oxo-2,3-dihydro-1H-imidazo[4,5-c]quinolin-8-yl]-2-methyl-pyridin-3-yl}-methanesulfonamide]",96 nM
13,"Cc1nn(C)cc1-n1c(=O)n(C)c2cnc3ccc(-c4ccc(OCCCO)nc4)cc3c21 [Example 108, 1-(1,3-Dimethyl-1H-pyrazol-4-yl)-8-[6-(3-hydroxy-propoxy)-pyridin-3-yl]-3-methyl-1,3-dihydro-imidazo[4,5-c]quinolin-2-one]",535 nM
14,"Cc1cncc(-c2ccc3ncc4c(c3c2)n(-c2cn(C)nc2C)c(=O)n4C)c1 [Example 24, 1-(1,3-Dimethyl-1H-pyrazol-4-yl)-3-methyl-8-(5-methyl-pyridin-3-yl)-1,3-dihydro-imidazo[4,5-c]quinolin-2-one]",111 nM
15,"Cc1nn(C)cc1-n1c(=O)n(C)c2cnc3ccc(-c4cnc5ccccc5c4)cc3c21 [Example 38, 1-(1,3-Dimethyl-1H-pyrazol-4-yl)-3-methyl-8-quinolin-3-yl-1,3-dihydro-imidazo[4,5-c]quinolin-2-one]",123 nM
16,"COCc1ccc(-c2ccc3ncc4c(c3c2)n(-c2cn(C(C)C)nc2C)c(=O)n4C)cn1 [Example 105, 1-(1-Isopropyl-3-methyl-1H-pyrazol-4-yl)-8-(6-methoxymethyl-pyridin-3-yl)-3-methyl-1,3-dihydro-imidazo[4,5-c]quinolin-2-one]",310 nM
17,"Cc1cc(-n2c(=O)n(C)c3cnc4ccc(-c5ccc(N(C)C)nc5)cc4c32)n(C)n1 [Example 4.6, 8-(6-Dimethylamino-pyridin-3-yl)-1-(2,5-dimethyl-2H-pyrazol-3-yl)-3-methyl-1,3-dihydro-imidazo[4,5-c]quinolin-2-one]",481 nM
18,"Cc1nn(C)cc1-n1c(=O)n(C)c2cnc3ccc(-c4cnc5c(ccn5C)c4)cc3c21 [Example 116, 1-(1,3-Dimethyl-1H-pyrazol-4-yl)-3-methyl-8-(1-methyl-1H-pyrrolo[2,3-b]pyridin-5-yl)-1,3-dihydro-imidazo[4,5-c]quinolin-2-one]",236 nM

# System: not listed separately
# Assay: Cellular CaCo2 permeability assay from apical to basal (A-B)
# Assay type: in vitro ADME
# Settings: human, Caco-2, read-out: Pe A-B (permeability)
# Description: The permeability in 10^−6 cm/s of compounds of formula (I) have been confirmed for selected example using a cellular CaCo2 permeability assay from apical to basal (A-B): […]
row,Papp A→B,Structure (SMILES)
1,29.9 ×10⁻⁶ cm/s,"CCNc1cc(-c2ccc3ncc4c(c3c2)n(-c2cn(C)nc2Cl)c(=O)n4C)cnc1C [Example 87.2, 1-(3-Chloro-1-methyl-1H-pyrazol-4-yl)-8-(5-ethylamino-6-methyl-pyridin-3-yl)-3-methyl-1,3-dihydro-imidazo[4,5-c]quinolin-2-one]"
2,7.8 ×10⁻⁶ cm/s,"Cc1nn(C)cc1-n1c(=O)n(C)c2cnc3ccc(-c4cncc(N5CCOCC5)c4)cc3c21 [Example 175.1, 1-(1,3-Dimethyl-1H-pyrazol-4-yl)-3-methyl-8-(5-morpholin-4-yl-pyridin-3-yl)-1,3-dihydro-imidazo[4,5-c]quinolin-2-one]"
3,10.9 ×10⁻⁶ cm/s,"CCNc1cc(-c2ccc3ncc4c(c3c2)n(-c2cn(CC)nc2C)c(=O)n4C)cnc1CO [Example 155.2, 8-(5-Ethylamino-6-hydroxymethyl-pyridin-3-yl)-1-(1-ethyl-3-methyl-1H-pyrazol-4-yl)-3-methyl-1,3-dihydro-imidazo[4,5-c]quinolin-2-one]"

# More lines, now with the values behind:
row,Structure (SMILES),Papp A→B
1,"CCn1cc(-n2c(=O)n(C)c3cnc4ccc(-c5ccc(OC)c(OC)c5)cc4c32)c(C)n1 [Example 1.6, 8-(3,4-Dimethoxy-phenyl)-1-(1-ethyl-3-methyl-1H-pyrazol-4-yl)-3-methyl-1,3-dihydro-imidazo[4,5-c]quinolin-2-one]",31.6 ×10⁻⁶ cm/s
2,"Cc1nn(C)cc1-n1c(=O)n(C)c2cnc3ccc(-c4cncc(N5CCC5)c4)cc3c21 [Example 179, 8-(5-Azetidin-1-yl-pyridin-3-yl)-1-(1,3-dimethyl-1H-pyrazol-4-yl)-3-methyl-1,3-dihydro-imidazo[4,5-c]quinolin-2-one]",16 ×10⁻⁶ cm/s
3,"CCn1cc(-n2c(=O)n(C)c3cnc4ccc(-c5ccc(OC)nc5)cc4c32)c(C)n1 [Example 2.7, 1-(1-Ethyl-3-methyl-1H-pyrazol-4-yl)-8-(6-methoxy-pyridin-3-yl)-3-methyl-1,3-dihydro-imidazo[4,5-c]quinolin-2-one]",21.5 ×10⁻⁶ cm/s
4,"CCOc1ccc(-c2ccc3ncc4c(c3c2)n(-c2cn(CC(=O)N(C)C)nc2C)c(=O)n4C)cn1 [Example 3.9, 2-{4-[8-(6-Ethoxy-pyridin-3-yl)-3-methyl-2-oxo-2,3-dihydro-imidazo[4,5-c]quinolin-1-yl]-3-methyl-pyrazol-1-yl}-N,N-dimethyl-acetamide]",14.8 ×10⁻⁶ cm/s
5,"CCOc1ccc(-c2ccc3ncc4c(c3c2)n(-c2cn(C(C)C)nc2C)c(=O)n4C)cn1 [Example 3.7, 8-(6-Ethoxy-pyridin-3-yl)-1-(1-isopropyl-3-methyl-1H-pyrazol-4-yl)-3-methyl-1,3-dihydro-imidazo[4,5-c]quinolin-2-one]",27.8 ×10⁻⁶ cm/s
6,"COc1ccc(-c2ccc3ncc4c(c3c2)n(-c2cn(C)nc2C)c(=O)n4C)cn1 [Example 2.5, 1-(1,3-Dimethyl-1H-pyrazol-4-yl)-8-(6-methoxy-pyridin-3-yl)-3-methyl-1,3-dihydro-imidazo[4,5-c]quinolin-2-one]",38.4 ×10⁻⁶ cm/s

# Reference: patent publication US20140005163A1 (NOVARTIS AG, priority 2010, published 2014)
